Reference: US12606548B2, “Fungicidal oxadiazoles” (FMC CORPORATION, priority 2019, dated 2026)
Marks after values point to notes of the source that are not given here.

How the values were obtained:
Format in all cases: in vivo
[1] = system: Zymoseptoria tritici; assay: Test B: test suspension sprayed on wheat seedlings, inoculated next day with Zymoseptoria tritici (wheat leaf blotch), visual disease rating; conditions: for Test B rating (% disease control): relative to the controls
From the text: General protocol for preparing test suspensions for Tests A-C: the test compounds were first dissolved in acetone in an amount equal to 3% of the final volume and then suspended at the desired concentration (in ppm) in acetone and purified water (50/50 mix by volume) containing 250 ppm of the surfactant PEG400 (polyhydric alcohol esters). The resulting test suspensions were then used in Tests A-C.
The test suspension was sprayed to the point of run-off on wheat seedlings. The following day the seedlings were inoculated with a spore suspension of Zymoseptoria tritici (the causal agent of wheat leaf blotch) and incubated in a saturated atmosphere at 24° C., for 48 h, and then moved to a growth chamber at 20° C., for 17 days, after which time visual disease ratings were made.
Results for Tests A-C are given in Table A. In the Table, a rating of 100 indicates 100% disease control and a rating of 0 indicates no disease control (relative to the controls). A dash (-) indicates the compound was not tested. The test suspensions were sprayed at the concentration listed in the column “Rate in ppm”, unless otherwise indicated. An asterisk “*” next to the rating indicates a 250 ppm test suspension was used, a double asterisk “**” next to the rating indicates a 100 ppm test suspension was used, and a triple asterisk “***” next to the rating indicates a 50 ppm test suspension was used.

[2] = system: Phakopsora pachyrhizi; assay: Test A: test suspension sprayed on soybean seedlings, inoculated next day with Phakopsora pachyrhizi (Asian soybean rust), visual disease rating; conditions: for Test A rating (% disease control): relative to the controls
How it was run: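 Compounds first dissolved in acetone (3% of final volume), then suspended in acetone/water 50/50 with 250 ppm PEG400 and sprayed to run-off on soybean seedlings at the stated ppm rate. Inoculated next day with P. pachyrhizi spores; 24 h saturated atmosphere at 22 °C, then 8 days in growth chamber at 22 °C before visual disease rating.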

[3] = system: Puccinia recondita f. sp. tritici; assay: Test C: test suspension sprayed on wheat seedlings, inoculated next day with Puccinia recondita f. sp. tritici (wheat leaf rust), visual disease rating; conditions: for Test C rating (% disease control): relative to the controls
How it was run: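 Compounds dissolved in acetone (3% of final volume), suspended in acetone/water 50/50 with 250 ppm PEG400 and sprayed to run-off on wheat seedlings at the listed ppm rate. Inoculated next day with P. recondita spores; 24 h saturated atmosphere at 20° C, then 6 days growth chamber at 20° C; visual disease rating.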

Molecule	Test B rating (% disease control) ([1]; 250 ppm test suspension)	Test A rating (% disease control) ([2]; Rate 10 ppm test suspension) [%]	Test C rating (% disease control) ([3]; Rate 10 ppm test suspension) [%]	Test B disease control rating ([1]; 250 ppm test suspension)	also measured
CCOC(=O)c1cnn(CN2CCC(c3noc(C(F)(F)F)n3)CC2)c1 [compound 458]	0* %				Test A rating (% disease control) ([2]; Rate 50 ppm test suspension): 0%; Test C rating (% disease control) ([3]; Rate 50 ppm test suspension): 0%
O=C(c1ccc(Cc2ccc(-c3noc(C(F)(F)F)n3)cc2)o1)C(F)(F)F [compound 450]	41* %	94	0		
OC(c1ccc(-c2noc(C(F)(F)F)n2)cc1)c1cccc(Cl)c1 (racemic) [compound 499]	48* %				Test A rating (% disease control) ([2]; Rate 250 ppm test suspension): 100%; Test C rating (% disease control) ([3]; Rate 250 ppm test suspension): 100%
COCCNC(=O)c1csc(Cc2ccc(-c3noc(C(F)(F)F)n3)cc2)n1 [compound 394]	99* %	100	100		
COC(=O)c1coc(Cc2ccc(-c3noc(C(F)(F)F)n3)cc2)c1 [compound 456]	65* %	100	68		
CCOC(=O)c1cnn(Cc2ccc(-c3noc(C(F)(F)F)n3)cc2)c1 [compound 276]				35* %	Test A disease control rating ([2]; 50 ppm test suspension): 100%; Test C disease control rating ([3]; 50 ppm test suspension): 80%
methyl 1,2-dihydro-2-oxo-1-[[4-[5-(trifluoromethyl)-1,2,4-oxadiazol-3-yl]phenyl]methyl]-4-pyridinecarboxylate [Compound 24]					Test B disease control rating ([1]; 270 ppm test suspension): 18%; Test A disease control rating ([2]; 270 ppm test suspension): 100%; Test C disease control rating ([3]; 270 ppm test suspension): 100%
methyl 4,5-dihydro-2-[[4-[5-(trifluoromethyl)-1,2,4-oxadiazol-3-yl]phenyl]methyl]-4-oxazolecarboxylate [Compound 74]				0%	Test A disease control rating ([2]; 250 ppm test suspension): 100%; Test C disease control rating ([3]; 250 ppm test suspension): 96%
O=C(NCCn1cccn1)c1csc(Cc2ccc(-c3noc(C(F)(F)F)n3)cc2)n1 [compound 396]	28* %	100	100		
CCOC(=O)c1cnn(COc2ccc(-c3noc(C(F)(F)F)n3)cc2)c1 [compound 376]				49* %	Test A disease control rating ([2]; 10 ppm test suspension): 100%; Test C disease control rating ([3]; 10 ppm test suspension): 68%
methyl 2-[[4-[5-(trifluoromethyl)-1,2,4-oxadiazol-3-yl]-phenoxy]methyl]oxazole-4-carboxylate [Compound 403]				93%	Test A disease control rating ([2]; 250 ppm test suspension): 100%; Test C disease control rating ([3]; 250 ppm test suspension): 100%
1,3-dihydro-1-methyl-3-[[4-[5-(trifluoromethyl)-1,2,4-oxadiazol-3-yl]phenyl]methyl]-2H-benzimidazol-2-one [Compound 159]				0%	Test A disease control rating ([2]; 250 ppm test suspension): 100%; Test C disease control rating ([3]; 250 ppm test suspension): 100%
COCCNC(=O)c1csc(COc2ccc(-c3noc(C(F)(F)F)n3)cc2)n1 [compound 469]	65* %	96	86		
O=C(c1coc(Cc2ccc(-c3noc(C(F)(F)F)n3)cc2)n1)N1CCC(F)(F)C1 [compound 402]	96* %	100	90		
O=C(NCC(F)F)c1coc(Cc2ccc(-c3noc(C(F)(F)F)n3)cc2)n1 [compound 225]				99* %	Test A disease control rating ([2]; 10 ppm test suspension): 100%; Test C disease control rating ([3]; 10 ppm test suspension): 100%
O=C(NCCn1cccn1)c1csc(COc2ccc(-c3noc(C(F)(F)F)n3)cc2)n1 [compound 471]	15* %	77	80		

Molecule	Test B rating (% disease control) ([1]; 250 ppm test suspension)	Test A rating (% disease control) ([2]; Rate 10 ppm test suspension) [%]	Test C rating (% disease control) ([3]; Rate 10 ppm test suspension) [%]	Test B disease control rating ([1]; 250 ppm test suspension)	also measured
COC(=O)c1cnn(Cc2ccc(-c3noc(C(F)(F)F)n3)cc2)c1 [compound 21]					Test B disease control rating ([1]; 100 ppm test suspension (double asterisk **)): 97** %; Test A disease control rating ([2]; 10 ppm test suspension): 100%; Test C disease control rating ([3]; 10 ppm test suspension): 100%
O=C(NCCn1cccn1)c1coc(Cc2ccc(-c3noc(C(F)(F)F)n3)cc2)n1 [compound 264]				99* %	Test A disease control rating ([2]; 10 ppm test suspension): 100%; Test C disease control rating ([3]; 10 ppm test suspension): 99%
2-[[4-[5-(trifluoromethyl)-1,2,4-oxadiazol-3-yl]phenyl]methyl]-1H-isoindole-1,3(2H)-dione [Compound 90]					Test B disease control rating ([1]; 260 ppm test suspension): 100%; Test A disease control rating ([2]; 260 ppm test suspension): 100%; Test C disease control rating ([3]; 260 ppm test suspension): 100%
O=C(NCC(F)(F)F)c1coc(Cc2ccc(-c3noc(C(F)(F)F)n3)cc2)n1 [compound 316]				5* %	Test A disease control rating ([2]; 10 ppm test suspension): 100%; Test C disease control rating ([3]; 10 ppm test suspension): 100%
CCOC(=O)c1cnn(C(C)c2ccc(-c3noc(C(F)(F)F)n3)s2)c1 (racemic) [Compound 192]				99* %	Test A disease control rating ([2]; 10 ppm test suspension): 100%; Test C disease control rating ([3]; 10 ppm test suspension): 100%
COC(=O)c1coc(Cc2ccc(-c3noc(C(F)(F)F)n3)cc2)n1 [Compound 490]	94* %	100	74		
COCCNC(=O)c1coc(Cc2ccc(-c3noc(C(F)(F)F)n3)cc2)n1 [compound 257]				99* %	Test A disease control rating ([2]; 10 ppm test suspension): 100%; Test C disease control rating ([3]; 10 ppm test suspension): 100%
OC(c1ccc(F)cc1)c1ccc(-c2noc(C(F)(F)F)n2)cc1 (racemic) [compound 500]	5* %				Test A rating (% disease control) ([2]; Rate 250 ppm test suspension): 100%; Test C rating (% disease control) ([3]; Rate 250 ppm test suspension): 100%
O=C(NCCCC(F)(F)F)c1coc(Cc2ccc(-c3noc(C(F)(F)F)n3)cc2)n1 [compound 398]	80* %	100	97		
COC(=O)c1coc(COc2ccc(-c3noc(C(F)(F)F)n3)cc2)n1 [Compound 403, methyl 2-[[4-[5-(trifluoromethyl)-1,2,4-oxadiazol-3-yl]-phenoxy]methyl]oxazole-4-carboxylate]	47* %	60	0		
CCOC(=O)c1csc(COc2ccc(-c3noc(C(F)(F)F)n3)cc2)n1 [compound 404]	0* %	0	68		
CON=C(CCl)COC(=O)c1cnn(Cc2ccc(-c3noc(C(F)(F)F)n3)cc2)c1 [compound 494]	47* %	100	0		
O=C(NCCC(F)(F)F)c1coc(Cc2ccc(-c3noc(C(F)(F)F)n3)cc2)n1 [compound 330]				96* %	Test A disease control rating ([2]; 10 ppm test suspension): 100%; Test C disease control rating ([3]; 10 ppm test suspension): 100%
4,5-dihydro-N,N-dimethyl-2-[[4-[5-(trifluoromethyl)-1,2,4-oxadiazol-3-yl]phenyl]methyl]-4-oxazolecarboxamide [Compound 178]					Test B disease control rating ([1]; 260 ppm test suspension): 93%; Test A disease control rating ([2]; 260 ppm test suspension): 100%; Test C disease control rating ([3]; 260 ppm test suspension): 100%
CN(C)C(=O)C1=NOC(COc2cccc(-c3noc(C(F)(F)F)n3)c2)C1 (stereo not drawn) [compound 502]	62%				Test A rating (% disease control) ([2]; Rate 250 ppm test suspension): 100%; Test C rating (% disease control) ([3]; Rate 250 ppm test suspension): 100%
